Measurements: article PMC12647218 (Scientific Reports, 2025)

Tests used:
hMAO-A = biological target: T1, hMAO-A (Homo sapiens, UniProt P21397); experiment: hMAO-A inhibition, in vitro fluorometric technique; format: biochemical
T1 sequence (P21397 1-527): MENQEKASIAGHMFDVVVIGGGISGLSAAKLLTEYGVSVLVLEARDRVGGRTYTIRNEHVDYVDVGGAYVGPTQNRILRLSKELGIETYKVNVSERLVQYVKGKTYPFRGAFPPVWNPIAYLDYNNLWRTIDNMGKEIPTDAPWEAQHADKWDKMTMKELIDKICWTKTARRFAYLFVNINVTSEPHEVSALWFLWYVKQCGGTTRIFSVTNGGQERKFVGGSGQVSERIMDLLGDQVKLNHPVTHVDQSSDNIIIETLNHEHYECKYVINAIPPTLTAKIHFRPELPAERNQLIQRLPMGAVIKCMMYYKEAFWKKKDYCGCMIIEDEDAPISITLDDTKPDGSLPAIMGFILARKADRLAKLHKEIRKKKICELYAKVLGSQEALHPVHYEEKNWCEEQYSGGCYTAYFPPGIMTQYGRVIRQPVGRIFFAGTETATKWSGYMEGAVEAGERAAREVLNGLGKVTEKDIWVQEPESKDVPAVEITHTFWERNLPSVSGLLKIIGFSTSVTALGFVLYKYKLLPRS

[1] = biological target: Acetylcholinesterase from Electrophorus electricus (electric eel) (Electrophorus electricus, UniProt O42275); experiment: biochemical
[2] = biological target: Butyrylcholinesterase from equine serum (Equus caballus, UniProt P81908); experiment: BChE inhibition, modified colorimetric Ellman method; format: biochemical
Chain of Butyrylcholinesterase from equine serum (P81908 whole entry): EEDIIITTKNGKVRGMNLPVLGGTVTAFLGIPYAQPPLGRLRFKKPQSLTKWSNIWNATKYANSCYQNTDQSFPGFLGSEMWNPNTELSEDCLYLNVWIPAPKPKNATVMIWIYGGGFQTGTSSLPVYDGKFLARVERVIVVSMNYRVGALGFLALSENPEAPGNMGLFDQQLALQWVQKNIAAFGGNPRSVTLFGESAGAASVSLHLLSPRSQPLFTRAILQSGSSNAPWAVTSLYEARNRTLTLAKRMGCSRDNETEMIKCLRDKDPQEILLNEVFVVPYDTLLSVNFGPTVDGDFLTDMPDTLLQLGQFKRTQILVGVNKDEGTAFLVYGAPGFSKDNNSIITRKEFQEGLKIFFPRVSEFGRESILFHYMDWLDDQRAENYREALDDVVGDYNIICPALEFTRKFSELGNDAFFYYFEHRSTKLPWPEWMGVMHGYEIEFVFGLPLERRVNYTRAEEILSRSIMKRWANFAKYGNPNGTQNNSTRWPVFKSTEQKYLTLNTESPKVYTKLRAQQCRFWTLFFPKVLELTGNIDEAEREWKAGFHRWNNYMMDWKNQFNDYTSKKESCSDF

Chain of Acetylcholinesterase from Electrophorus electricus (electric eel) (O42275 24-633): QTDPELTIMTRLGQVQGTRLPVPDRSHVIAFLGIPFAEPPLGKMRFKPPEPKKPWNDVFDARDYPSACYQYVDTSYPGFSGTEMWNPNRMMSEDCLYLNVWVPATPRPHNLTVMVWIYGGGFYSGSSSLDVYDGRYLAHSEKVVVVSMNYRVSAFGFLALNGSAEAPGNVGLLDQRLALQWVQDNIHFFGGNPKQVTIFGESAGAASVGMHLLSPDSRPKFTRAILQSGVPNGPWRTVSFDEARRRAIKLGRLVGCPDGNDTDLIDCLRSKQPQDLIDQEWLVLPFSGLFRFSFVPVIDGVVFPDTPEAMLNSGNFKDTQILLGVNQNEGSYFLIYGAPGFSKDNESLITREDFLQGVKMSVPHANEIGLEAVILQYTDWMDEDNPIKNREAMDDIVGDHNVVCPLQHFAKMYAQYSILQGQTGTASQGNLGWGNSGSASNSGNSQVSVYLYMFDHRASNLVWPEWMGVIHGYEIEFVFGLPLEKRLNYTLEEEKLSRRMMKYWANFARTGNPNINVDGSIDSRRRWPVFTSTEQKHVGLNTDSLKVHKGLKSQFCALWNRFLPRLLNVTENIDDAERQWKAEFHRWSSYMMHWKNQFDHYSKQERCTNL

Row | Structure (SMILES) | IC50 (hMAO-A) | IC50 [1] | Ki [1] | IC50 [2] | Ki [2]
1 | COc1cccc2cc(/C(C)=N/NC(=O)c3cccc4[nH]ccc34)c(=O)oc12 [Compound 3g, (E)-N’-(1-(8-methoxy-2-oxo-2 H-chromen-3-yl)ethylidene)-1 H-indole-4-carbohydrazide] | 2.08 ± 0.15 µM | 29 ± 4.3 µM | 21 ± 3.48 µM | 81.5 ± 6.02 µM | 73.6 ± 4.66 µM
2 | COc1cccc2cc(/C(C)=N/NC(=O)c3ccccc3Cl)c(=O)oc12 [Compound 3m, (E)-2-chloro-N’-(1-(8-methoxy-2-oxo-2 H-chromen-3-yl)ethylidene)benzohydrazide] | 1.9 ± 0.3 µM | 14.8 ± 1.4 µM | 10.4 ± 0.59 µM | 82.3 ± 6.9 µM | 71.4 ± 7.01 µM
3 | COc1cccc2cc(/C(C)=N/NC(=O)c3ccccc3Br)c(=O)oc12 [Compound 3c, (E)-2-bromo-N’-(1-(8-methoxy-2-oxo-2 H-chromen-3-yl)ethylidene)benzohydrazide] | 2.03 ± 0.08 µM | 17 ± 1.9 µM | 11.3 ± 0.93 µM | > 100 µM | > 100 µM
4 | COc1cccc2cc(/C(C)=N/NC(=O)Cc3ccccc3)c(=O)oc12 [Compound 3i, (E)-N’-(1-(8-methoxy-2-oxo-2 H-chromen-3-yl)ethylidene)-2-phenylacetohydrazide] | 1.87 ± 0.07 µM | 18.4 ± 1.98 µM | 15.4 ± 2.01 µM | 79.3 ± 5.03 µM | 70.3 ± 3.57 µM
5 | COc1cccc2cc(/C(C)=N/NC(=O)c3cc4ccccc4cc3O)c(=O)oc12 [Compound 3a, (E)-3-Hydroxy-N’-(1-(8-methoxy-2-oxo-2 H-chromen-3-yl)ethylidene)-2-naphthohydrazide] | 1.44 ± 0.03 µM | 7.4 ± 0.14 µM | 6.03 ± 0.4 µM | 74.4 ± 4.98 µM | 63.3 ± 5.38 µM
6 | COc1cccc2cc(/C(C)=N/NC(=O)c3cccc(Cl)c3)c(=O)oc12 [Compound 3h, (E)-3-chloro-N’-(1-(8-methoxy-2-oxo-2 H-chromen-3-yl)ethylidene)benzohydrazide] | 1.8 ± 0.26 µM | 41.1 ± 3.28 µM | 25.8 ± 1.97 µM | 85 ± 3.48 µM | 77 ± 6.92 µM
7 | COc1cccc2cc(/C(C)=N/NC(=O)c3ccco3)c(=O)oc12 [Compound 3f, (E)-N’-(1-(8-methoxy-2-oxo-2 H-chromen-3-yl)ethylidene)furan-2-carbohydrazide] | 3.94 ± 0.43 µM | 23.8 ± 2.44 µM | 19.6 ± 2.44 µM | 78.2 ± 5.8 µM | 68.5 ± 5.07 µM
8 | COc1cccc2cc(/C(C)=N/NC(=O)c3ccccn3)c(=O)oc12 [Compound 3l, (E)-N’-(1-(8-methoxy-2-oxo-2 H-chromen-3-yl)ethylidene)picolinohydrazide] | 1.65 ± 0.34 µM | 8.54 ± 1.01 µM | 7.08 ± 0.64 µM | 75 ± 5.3 µM | 69 ± 5.3 µM
9 | COc1cccc2cc(/C(C)=N/NC(=O)c3cccs3)c(=O)oc12 [Compound 3j, (E)-N’-(1-(8-methoxy-2-oxo-2 H-chromen-3-yl)ethylidene)thiophene-2-carbohydrazide] | 2.5 ± 0.31 µM | 21.9 ± 3.24 µM | 14.6 ± 1.05 µM | > 100 µM | > 100 µM
10 | COc1cccc2cc(/C(C)=N/NC(=O)c3ccc(C(F)(F)F)cc3)c(=O)oc12 [Compound 3e, (E)-N’-(1-(8-methoxy-2-oxo-2 H-chromen-3-yl)ethylidene)-4-(trifluoromethyl) benzohydrazide] | 1.51 ± 0.13 µM | 8.01 ± 0.7 µM | 7.38 ± 1.01 µM | 65.4 ± 4.55 µM | 57 ± 3.95 µM
11 | COc1cccc2cc(/C(C)=N/NC(=O)c3ccc(F)cc3)c(=O)oc12 [Compound 3k, (E)-4-fluoro-N’-(1-(8-methoxy-2-oxo-2 H-chromen-3-yl)ethylidene)benzohydrazide] | 1.83 ± 0.17 µM | 12.4 ± 0.98 µM | 7.95 ± 0.57 µM | 71.5 ± 3.68 µM | 66.1 ± 4.62 µM
12 | COc1cccc2cc(/C(C)=N/NC(=O)c3ccccc3C)c(=O)oc12 [Compound 3d, (E)-N’-(1-(8-methoxy-2-oxo-2 H-chromen-3-yl)ethylidene)-2-methylbenzohydrazide] | 1.73 ± 0.05 µM | 20.2 ± 2.67 µM | 13.5 ± 1.24 µM | 90.1 ± 3.78 µM | 69.9 ± 5.75 µM
13 | COc1cccc2cc(/C(C)=N/NC(=O)Cn3ccc4cccnc43)c(=O)oc12 [Compound 3b, (E)-N’-(1-(8-methoxy-2-oxo-2 H-chromen-3-yl)ethylidene)-2-(1 H-pyrrolo[2,3-b]pyridin-1-yl)acetohydrazide] | 1.97 ± 0.1 µM | 26.5 ± 3.42 µM | 15.7 ± 1.37 µM | > 100 µM | > 100 µM
